This passage reports EC50 results from patent publication US8367684B2, “Derivatives of 4-(N-azacycloalkyl) anilides as potassium channel modulators” (Valeant Pharmaceuticals International, priority 2007, dated 2013).

The test system of the assay is potassium ion channels. The assay is described as follows: Rubidium (Rb+) efflux assay in NGF-differentiated PC-12 cells, potassium channel modulation. The class given is cell-based. Conditions: depolarization buffer with 15 mM KCl, 10 min at room temperature, read-out: ACTIVITY (EC50, compound's concentration for 50% of maximal Rb+ efflux). On the procedure: Compounds of this invention formula were evaluated as potassium channel modulators by measuring rhubidium release in the following assay.
Methods: PC-12 cells were grown at 37° C. and 5% CO2 in DMEM/F12 Medium supplemented with 10% horse serum, 5% fetal bovine serum, 2 mM glutamine, 100 U/ml penicillin, 100 U/ml streptomycin. They were plated in poly-D-lysine-coated 96-well cell culture microplates at a density of 40,000 cells/well and differentiated with 100 ng/ml NGF-7s for 2-5 days. For the assay, the medium was aspirated and the cells were washed once with 0.2 ml in wash buffer (25 mM Hepes, pH 7.4, 150 mM NaCl, 1 mM MgCl2, 0.8 mM NaH2PO4, 2 mM CaCl2). The cells were then loaded with 0.2 ml Rb^+ loading buffer (wash buffer plus 5.4 mM […], 5 mM glucose) and incubated at 37° C. for 2 h. Attached cells were quickly washed three times with buffer (same as Rb^+ loading buffer, but containing 5.4 mM KCl instead of RbCl) to remove extracellular Rb^+. Immediately following the wash, 0.2 ml of depolarization buffer (wash buffer plus 15 mM KCl) with or without compounds was added to the cells to activate efflux of potassium ion channels. After incubation for 10 min at room temperature, the supernatant was carefully removed and collected. Cells were lysed by the addition of 0.2 ml of lysis buffer (depolarization buffer plus 0.1% Triton X-100) and the cell lysates were also collected. If collected samples were not immediately analyzed for Rb^+ contents by atomic absorption spectroscopy (see below), they were stored at 4° C. without any negative effects on subsequent Rb^+ analysis.
The concentration of Rb^+ in the supernatants (Rb^+Sup) and cell lysates (Rb^+Lys) was quantified using an ICR8000 flame atomic absorption spectrometer (Aurora Biomed Inc., Vancouver, B.C.) under conditions defined by the manufacturer. One 0.05 ml samples were processed automatically from microtiter plates by dilution with an equal volume of Rb^+ sample analysis buffer and injection into an air-acetylene flame. The amount of Rb^+ in the sample was measured by absorption at 780 nm using a hollow cathode lamp as light source and a PMT detector. A calibration curve covering the range 0-5 mg/L Rb^+ in sample analysis buffer was generated with each set of plates. The percent Rb^+ efflux (F) was defined by F=[Rb^+sup/(Rb^+sup+Rb^+Lys)]×100%.
The effect (E) of a compound was defined by: E=[(Fc−Fb)/(Fs−Fb)]×100% where the Fc is the efflux in the presence of compound in depolarization buffer, Fb is the efflux in basal buffer, and Fs is the efflux in depolarization buffer, and Fc is the efflux in the presence of compound in depolarization buffer. The effect (E) and compound concentration relationship was plotted to calculate an EC50 value, a compound's concentration for 50% of maximal Rb^+ efflux. Legend: A: EC50=1 nM-50 nM; B: EC50=50 nM-100 nM; C: EC50=100-200 nM.

`COc1nc(N2CCc3ccccc3C2)nc(OC)c1NC(=O)CC(C)(C)C`: the EC50 lay in the range of 1 to 50 nM.

Turning to `Cc1cc(N2CCc3cc(C(F)(F)F)ccc3C2)nc(C)c1NC(=O)CC(C)(C)C`, the EC50 lay in the range of 1 to 50 nM.

As for `Cc1cc(N2CCc3ccccc3C2)nc(C)c1NC(=O)CC(C)(C)C`, the EC50 lay within 1 to 50 nM.

`Cc1cc(N2CCc3cc(F)ccc3C2)nc(C)c1NC(=O)CC(C)(C)C`: the EC50 was 1 to 50 nM.

On to `Cc1nc(N2CCc3ccccc3C2)nc(C)c1NC(=O)CC(C)(C)C`, for which the EC50 lay within 50 to 100 nM.

Regarding `COc1nc(N2CCc3cc(F)ccc3C2)nc(OC)c1NC(=O)CC(C)(C)C`, the EC50 is 1 to 50 nM.
